Source: patent US8883847B2, “Compositions and methods of treatment using modulators of motoneuron diseases” (KineMed, Inc., priority 2006, dated 2014)

Test system: SOD1-G93A TGN mice
Assay: Noscapine-MK801 treatment of SOD1-G93A TGN mice: gait/stride length, disease onset, mortality
Assay type: in vivo, mouse
Details: for Mortality: age at death; for Onset of motor deficits: age at onset
Protocol: FIG. 6. Noscapine-MK801 combination delays onset of disease and death in SOD1-G93A TGN mice. The one and two-drug treatments were started at an early (i.e., presymptomatic) stage of disease (7 weeks). SOD1-G93A TGN mice were treated 3 times a week with noscapine (0.2 mg/kg body weight) and/or MK-801 (12 mg/kg body weight/day). Mice received noscapine intraperitoneally and MK-801 in drinking water.
Female SOD-1 G93A TGN mice were obtained from Jackson laboratory (strain #2726). The controls were matched litter mates. Treatment groups were three per group. Noscapine was injected intraperitoneal in the thigh 3 times/week (0.2 mg/kg i.p.) and MK801 was administered continuously in drinking water (12 mg/kg/d). Gait analysis was done by the method of Wooley et al., Muscle Nerve 2005 32(1):43-50 and Carter et al. J. Neurosci., 19(8):3248-3257, hereby incorporated by reference in their entirety.
For clinical assessment endpoints scoring was selected as follows:
GROUP CLASSIFICATION: Presymptomatic
Clinical signs: Full mobility and no observable difference in behavior from age-matched controls (Gait or stride length analysis).
GROUP CLASSIFICATION: Onset
Clinical signs: Abnormal Gait or stride length analysis and hindlimb weakness: >40% reduction in stride length vs. age-matched littermates.
GROUP CLASSIFICATION: End Stage (euthanization)
Clinical signs: noticeable and complete hind limb paralysis (which in this strain occurs more on one limb than the other) and inability to right themselves in 5 sec time window. This stage starts usually as the mice are failing the gait analysis test and enter the End stage. Therefore, Transgenic SOD1-G93A TGN mice are euthanized at the onset of noticeable and complete hindlimb paralysis and inability to right themselves in 5 sec time window.

| Structure (SMILES) | Mortality | Onset of motor deficits |
| --- | --- | --- |
| COc1ccc2c(c1OC)C(=O)O[C@@H]2[C@H]1c2c(cc3c(c2OC)OCO3)CCN1C [Noscapine, noscapine] | 112 to 119 days | 98 to 105 days |
| C[C@]12N[C@H](Cc3ccccc31)c1ccccc12 [MK-801, Dizocilipine] | 112 to 119 days | 105 to 112 days |
